Converted amounts (≈) assume the structure as drawn.
Key:
human isoQC = molecular target: T1, human isoQC (Homo sapiens, UniProt Q9NXS2); assay: Assay 1 - isoQC potency, fluorescent enzymatic assay (H-Gln-AMC, coupled pGAPase detection); type: biochemical; conditions: recombinant isoQC, 1 hour at 37°C
T1 construct: The Golgi luminal, enzymatically active region of human isoQC (S53-L382; see, e.g., Huang et al., 2011); GST (with enterokinase site) (N, cleaved yes); made in house; host or cells: E. coli
Excerpt: The Golgi luminal, enzymatically active region of human isoQC (S53-L382; see, e.g., Huang et al., 2011) was obtained by expression in E. coli of an N-terminally GST Enterokinase and C-terminally 6xHis tagged construct in the pET41(+) vector and subsequent purification using Ni-NTA IMAC. Enterokinase digestion ensued, followed by another Ni-NTA IMAC purification, Superdex75 based size exclusion and finally a spin concentration using a 10 kDa molecular weight cutoff. The final protein is formulated in 50 mM Tris-HCl, 150 mM NaCl, 50% Glycerol, pH 7.8.
Pyroglutamylation was measured by conversion of glutamine-4-amino-7-methylcoumarine (H-Gln-AMC, Bachem) to pyroglutamyl-AMC, which is subsequently a specific substrate for pyroglutamylaminopeptidase (pGAPase, Qiagen), releasing free AMC which can be fluorescently detected. For a typical inhibition assay, 7.5 µL aliquots of threefold dilutions of test compound in 50mM Tris pH8 buffer were plated in 384-well plates. 15 µL 20 µM hGln-AMC (diluted from a 40 mM stock dissolved in 25 mM HEPES using 50 mM Tris-HCl 25 pH 8.0) was added to each well. Finally, 7.5 µL, 3 ng/µL recombinant isoQC enzyme was added and the reaction mixture was incubated for 1 hour at 37°C. A 5 minute incubation at 98°C was then performed to denature the isoQC enzyme and stop the reaction.
To detect the amount of pyroglutamyl-AMC formed, a 0.125 U/mL pGAPase enzyme diluted in 50 mM Tris-HCl pH 8.0 containing 10 mM dithiothreitol (DTT) solution was prepared. 25 µL of the pyroglutamylation reaction mixture was transferred into an empty plate and to that, 25 µL of the pGAPase enzyme solution was added. Plates were then incubated for 25 minutes at room temperature before fluorescence readings were taken on an Envision2 plate reader with excitation set at 380 nm and emission at 450 nm. DMSO concentrations during the assay never exceeded 1% and activities were compared to controls containing only the same amount of DMSO and no test compound. Controls were taken along containing pyroglutamylated-AMC (Bachem, dissolved at 10 mM in DMSO) instead of H-Gln-AMC to control for pGAPase inhibition.
IC50 values are calculated using non-linear regression analysis with GraphPad Prism software.

pyroglutamylated CD47 = assay: Assay 3 - cell-based potency assay (pyroglutamylation in live cells, total CD47/pE-CD47 dual staining, FACS); set-up: species or system human; conditions: IC50 of CC2C6 signal, KBM7 cells, 72 hours incubation
Procedure: Cells were spun for 4 minutes at 1500 rpm and washed once with PBS / 0.5% BSA. Cells were spun down again and the supernatant was removed and incubated in 100 uL antibody staining solution (PBS / 0.5% BSA / 0.1 µg/mL DAPI (4',6-diamidino-2-phenylindole, ThermoFisher Scientific) and a mixture of 1:500 FITC-conjugated anti-human CD47 clone 2D3, which recognizes total CD47 irrespective of its pyroglutamylation state, and 1:500 Alexa647-conjugated anti-human CD47 clone CC2C6, which specifically detects pyroglutamylated CD47) for 2 hours at 4°C. Next, the cells were spun down and washed twice with 2 x 150 µL PBS / 0.5% BSA to remove unbound antibody. Cells were again spun down and taken up in 300 µL FACS buffer before analysis on a Celesta FACS machine (BD Biosciences).
KBM7 cells (Kotecki et al., 1999) were infected with lentivirus produced by transfecting pSCNC-LentiCRISPR-QPCTL or pSCNC-LentiCRISPR-CD47 into HEK-293T cells according to standard protocols. After 24 hours incubation, cells were selected with puromycin (Invivogen, 1 µg/mL) for 48 hours. Cells were stained for total CD47 and pE-CD47 and QPCTL k.o. cells were sorted out as negative for pE-CD47, and CD47 k.o. cells as negative for total CD47, using a FACSAria III and FACS Diva software (BD Biosciences).
In order to test compounds for their effect on pyroglutamylation in live cells, 25000 KBM7 cells per well were seeded in a 96-well U-bottom plate in 150 µl IMDM / 10% FCS / 1% Pen / Strep medium and a 10-point 2-fold dilution range of test compounds. After 72 hours incubation at 37°C, 5% COz, cells were stained for total CD47 and pE-CD47 and analysed on a BD Celesta using FACS Diva software (BD Biosciences). Cells gated for DAPI negativity were recorded and the median fluorescence intensity (MFI) of each sample was transformed to linearly scale between the MFI's of wildtype and CD47 knockout cells (in case of the 2D3 antibody) and the wildtype and QPCTL knockout cells (in case of the CC2C6 antibody). ICso's were calculated by 3 parameter logistic regression of the CC2C6 signal vs. compound concentration, where the top of the sigmoidal curve was fixed at 1, using R and the drc package (http://www.r-project.org, https://cran.r-project.org/web/packages/drc/index.html).

Kinetic solubility = type: physicochemical; conditions: aqueous buffer; 50 mM phosphate buffer (pH 7.4), 24 hours at room temperature
Procedure: To assess the solubility of test compounds 10 µL of a 10 mM solution in DMSO was added to the lower chamber of a whatman miniuniprep (PTFE Filter Media with Polypropylene Housing) vial. 490 µL of 50 mM phosphate buffer (pH 7.4) was added to the lower chamber, the samples were vortexed for at least two minutes and then shaken on a shaker for 24 hours at room temperature at the speed of 880 rpm. The samples were then centrifuged for 20 minutes at 4000 rpm, compressed and the filtrates were injected into a HPLC-UV and LC-MS/MS system to calculate the concentration compared to the standard curve using a ACQUITY UPLC BEH C18 1.7 µm 2.1 * 50 mm column.

T1 sequence (Q9NXS2 53-382): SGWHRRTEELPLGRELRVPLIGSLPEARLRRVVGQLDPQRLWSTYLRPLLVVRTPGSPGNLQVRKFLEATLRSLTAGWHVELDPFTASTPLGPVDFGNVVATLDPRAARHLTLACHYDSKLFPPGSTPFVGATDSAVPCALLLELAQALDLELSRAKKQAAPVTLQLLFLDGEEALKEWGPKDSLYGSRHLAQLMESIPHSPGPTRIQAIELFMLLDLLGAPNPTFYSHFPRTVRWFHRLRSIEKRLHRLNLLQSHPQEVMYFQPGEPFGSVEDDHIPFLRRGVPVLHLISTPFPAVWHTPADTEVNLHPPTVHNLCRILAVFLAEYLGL

Row | Compound | IC50 (human isoQC) [nM] | IC50 (pyroglutamylated CD47) [nM] | solubility at 24 h (Kinetic solubility) [µM] | IC50 (pyroglutamylated CD47; Homo sapiens, KBM-7, 72 h) [nM]
1 | O=C1OCC(c2ccc(N3CCCC3)cc2)N1c1ccc2[nH]cnc2c1 (single isomer, unassigned) [(18)-ent2] | 23.9 | 3490 | 60 (≈ 20.9 µg/mL) | –
2 | O=C1OCC(c2ccc(C3CCC(F)(F)CC3)cc2)N1c1ccc2[nH]cnc2c1 (single isomer, unassigned) [(19)-ent2] | 35.8 | 3730 | 42 (≈ 16.7 µg/mL) | –
3 | O=C1OC[C@H](c2ccc(-c3cnn(C(F)(F)F)c3)cc2F)N1c1ccc2[nH]cnc2c1 [Compound (1)] | 1.7 | – | 121 (≈ 52.2 µg/mL) | 92.1

From EP4455142A1, “NOVEL INHIBITOR OF QPCTL AND/OR QC” (Scenic Immunology B.V., priority 2023, dated 2024)
